Results on two compounds are retold here after paper PMC2652407 (Journal of Medicinal Chemistry, 2009).

Test [1] addresses T1, hAdoMetDC (Homo sapiens, UniProt P17707).
T1 sequence (P17707 1-67 limits assumed): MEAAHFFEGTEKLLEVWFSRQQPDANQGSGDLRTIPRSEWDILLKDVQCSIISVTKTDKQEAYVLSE
T1 sequence (P17707 68-328 limits assumed): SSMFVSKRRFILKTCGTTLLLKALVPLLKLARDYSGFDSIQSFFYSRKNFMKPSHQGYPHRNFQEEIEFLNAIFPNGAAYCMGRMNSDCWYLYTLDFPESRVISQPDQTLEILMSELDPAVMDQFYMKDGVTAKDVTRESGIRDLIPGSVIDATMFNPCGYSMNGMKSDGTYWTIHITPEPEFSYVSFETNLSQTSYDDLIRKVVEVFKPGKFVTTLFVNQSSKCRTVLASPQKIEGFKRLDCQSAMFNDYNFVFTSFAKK
It is filed as biochemical. The conditions noted are these: versus corresponding 8-H parent compound.

The target in test [2] is T1, hAdoMetDC. The conditions noted are these: previously reported AdoMetDC inhibitor; cited from earlier work.

Consider `Cc1nc2c(N)ncnc2n1[C@@H]1O[C@H](CN(C)CCCCON)[C@@H](O)[C@H]1O.O=S(=O)(O)O` [Compound 14d, 5′-[(4-Aminooxybutyl)methylamino]-5′-deoxy-8-methyladenosine sulfate (1.9:1 salt)], for which the “reduction in the IC50 value / increase in potency when an 8-methyl substituent was added to the adenine ring” value in test [1] turned out to be 3.4 fold.

Take `C[S+](C)C[C@H]1O[C@@H](n2cnc3c(N)ncnc32)[C@H](O)[C@@H]1O.[Cl-]` [Compound 25d, 5′-Deoxy-5′-dimethylsulfonioadenosine chloride]: the Ki result in test [2] is given as “μM range”.
